# Data from patent publication US12655116B2, “Substituted isophthalic acid diamides” (Bayer Aktiengesellschaft, priority 2020, dated 2026).
# Assays:
# [1] = tested on: ALOMY; assay: Post-emergence herbicidal action against ALOMY; format: in vivo, Alopecurus myosuroides; conditions: Alopecurus myosuroides, 504 h, dosage 20 g/ha, visual assessment about 3 weeks after treatment vs untreated controls
# How it was run: (§1)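 Sandy loam, greenhouse; treatment 2–3 weeks after sowing, one-leaf stage. Aqueous suspension or emulsion from WP/EC sprayed on foliage (600–800 l/ha, 0.2% wetting agent). Readout: visual % action, ~3 weeks.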
# [2] = tested on: SETVI; assay: Post-emergence herbicidal action against SETVI; format: in vivo, Setaria viridis; conditions: Setaria viridis, 504 h, dosage 20 g/ha
# How it was run: as §1
# [3] = tested on: AMARE; assay: Pre-emergence herbicidal action against AMARE; format: in vivo, Amaranthus retroflexus; conditions: Amaranthus retroflexus, 504 h, scored visually after 3 weeks vs untreated controls, 100% = plants have died, 0% = like control plants
# How it was run: (§2)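 Seeds sown in sandy loam, soil-covered; compound sprayed on soil surface pre-emergence. Application: WP/EC, 600–800 l/ha, 0.2% wetting agent. Readout: visual % damage at 3 weeks.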
# [4] = tested on: DIGSA; assay: Pre-emergence herbicidal action against DIGSA; format: in vivo, Digitaria sanguinalis; conditions: Digitaria sanguinalis, 504 h, dosage 80 g/ha
# How it was run: as §2
# [5] = tested on: HORMU; assay: Pre-emergence herbicidal action against HORMU; format: in vivo, Hordeum murinum; conditions: Hordeum murinum, 504 h; 80 g/ha, pre-emergence
# Text: Seeds of monocotyledonous and dicotyledonous weed plants and crop plants are laid out in sandy loam soil in wood-fiber pots and covered with soil. The compounds of the invention, formulated in the form of wettable powders (WP) or as emulsion concentrates (EC), are then applied to the surface of the covering soil in the form of an aqueous suspension or emulsion at a water application rate equivalent to 600 to 800 l/ha, with addition of 0.2% wetting agent. After the treatment, the pots are placed in a greenhouse and kept under good growth conditions for the trial plants. The damage to the test plants is scored visually after a test period of 3 weeks by comparison with untreated controls (herbicidal activity in percent (%): 100% activity=the plants have died, 0% activity=like control plants). […] The tables below illustrate, in an illustrative manner, the post-emergence herbicidal action of the compounds of the invention, the herbicidal activity being stated in percent.
# [6] = tested on: ABUTH; assay: Post-emergence herbicidal action against ABUTH; format: in vivo, Abutilon theophrasti; conditions: Abutilon theophrasti, 504 h, visual assessment about 3 weeks after treatment vs untreated controls
# How it was run: as §1
# [7] = tested on: ECHCG; assay: Post-emergence herbicidal action against ECHCG; format: in vivo, Echinochloa crus-galli; conditions: Echinochloa crus-galli, 504 h, dosage 20 g/ha
# How it was run: as §1
# [8] = tested on: AMARE; assay: Post-emergence herbicidal action against AMARE; format: in vivo, Amaranthus retroflexus; conditions: Amaranthus retroflexus, 504 h, 20 g/ha, visual assessment about 3 weeks after treatment, 100% = plants have died, 0% = like control plants
# How it was run: as §1
# [9] = tested on: MATIN; assay: Pre-emergence herbicidal action against MATIN; format: in vivo, Matricaria inodora; conditions: Tripleurospermum inodorum, 504 h, dosage 80 g/ha
# How it was run: as §2
# [10] = tested on: SETVI; assay: Pre-emergence herbicidal action against SETVI; format: in vivo, Setaria viridis; conditions: Setaria viridis, 504 h, dosage 80 g/ha
# How it was run: as §2
# [11] = tested on: AVEFA; assay: Pre-emergence herbicidal action against AVEFA; format: in vivo, Avena fatua; conditions: Avena fatua, 504 h; 80 g/ha, pre-emergence
# How it was run: as §2
# [12] = tested on: ALOMY; assay: Pre-emergence herbicidal action against ALOMY; format: in vivo, Alopecurus myosuroides; conditions: Alopecurus myosuroides, 504 h; 80 g/ha, pre-emergence, scored visually after 3 weeks vs untreated controls (100% = plants have died, 0% = like control plants)
# How it was run: as §2
# [13] = tested on: VERPE; assay: Pre-emergence herbicidal action against VERPE; format: in vivo, Veronica persica; conditions: Veronica persica, 504 h
# How it was run: as §2
# [14] = tested on: ECHCG; assay: Pre-emergence herbicidal action against ECHCG; format: in vivo, Echinochloa crus-galli; conditions: Echinochloa crus-galli, 504 h, 80 g/ha
# How it was run: as §2
# [15] = tested on: AVEFA; assay: Post-emergence herbicidal action against AVEFA; format: in vivo, Avena fatua; conditions: Avena fatua, 504 h, 20 g/ha, visual assessment about 3 weeks after treatment, 100% = plants have died, 0% = like control plants
# How it was run: as §1
# [16] = tested on: ABUTH; assay: Pre-emergence herbicidal action against ABUTH; format: in vivo, Abutilon theophrasti; conditions: Abutilon theophrasti, 504 h, 80 g/ha, scored visually after 3 weeks vs untreated controls (100% = plants have died, 0% = like control plants)
# How it was run: as §2
# [17] = tested on: DIGSA; assay: Post-emergence herbicidal action against DIGSA; format: in vivo, Digitaria sanguinalis; conditions: Digitaria sanguinalis, 504 h
# How it was run: as §1
# [18] = tested on: STEME; assay: Post-emergence herbicidal action against STEME; format: in vivo, Stellaria media; conditions: Stellaria media, 504 h
# How it was run: as §1
# [19] = tested on: STEME; assay: Pre-emergence herbicidal action against STEME; format: in vivo, Stellaria media; conditions: Stellaria media, 504 h, dosage 80 g/ha
# How it was run: as §2
structure (smiles),measurement,setting,value
CNC(=O)c1c(Cl)ccc(C(=O)Nc2nnnn2C)c1C [Example 1-4],pest or weed control at 20 g/ha,[1],80%
same,pest or weed control at 20 g/ha,[2],80%
same,pest or weed control at 20 g/ha,[3]; 20 g/ha,90%
same,pest or weed control at 80 g/ha,[3]; 80 g/ha,100%
same,pest or weed control at 80 g/ha,[4],100%
same,pest or weed control at 80 g/ha,[5],80%
same,pest or weed control at 5 g/ha,[6]; dosage 5 g/ha,90%
same,pest or weed control at 20 g/ha,[6]; dosage 20 g/ha,90%
same,pest or weed control at 20 g/ha,[7],100%
same,pest or weed control at 20 g/ha,[8],90%
same,pest or weed control at 80 g/ha,[9],100%
same,pest or weed control at 80 g/ha,[10],100%
same,pest or weed control at 80 g/ha,[11],90%
same,pest or weed control at 80 g/ha,[12],80%
same,pest or weed control at 20 g/ha,[13]; dosage 20 g/ha,80%
same,pest or weed control at 80 g/ha,[13]; dosage 80 g/ha,90%
same,pest or weed control at 80 g/ha,[14],90%
same,pest or weed control at 20 g/ha,[15],80%
same,pest or weed control at 80 g/ha,[16],100%
same,pest or weed control at 5 g/ha,[17]; 5 g/ha,80%
same,pest or weed control at 20 g/ha,[17]; 20 g/ha,90%
same,pest or weed control at 20 g/ha,[18]; 20 g/ha,90%
same,pest or weed control at 5 g/ha,[18]; dosage 5 g/ha,80%
same,pest or weed control at 80 g/ha,[19],90%
